Laboratory results taken from patent US20130095059A1, “INHALED NO DONOR KMUPS DERIVATIVE PREVENTING ALLERGIC PULMONARY VASCULAR AND BRONCHIAL INFLAMMATION VIA SUPPRESSED CYTOKINES, INOS AND INFLAMMATORY CELL COUNTS IN ASTHMA MODEL” (priority 2007, published 2013).

How the values were obtained:
ROCK = test: 5-HT-induced ROCK expression in PASMCs; type: cell-based, Wistar rats; settings: 1-100 μM, 24 h
Description: PASMCs were stimulated with 5-HT or not, as indicated. Cells were treated with KMUP-1 for 24 h before 5-HT stimulation. Whole lysates were collected and resolved by SDS-PAGE as previously described. Primary antibodies were anti-β-actin at: 1:10,000 dilution and anti-RhoA, anti-ROCK, antiphospho-ERK1/2, anti-phospho-AKT, anti-ERK1/2, anti-AKT, anti-5HTT, anti-5-HT2B and anti-eNOS at 1:1000. All blots were incubated with antibodies at 4° C. overnight. After being washed, the appropriate secondary antibodies were added at a dilution of 1:1000 for 1 h at room temperature. After extensive washing, blots were developed with a Super Signal enhanced chemiluminescence kit (Biorad, CA, USA) and visualized on Kodak AR film.
The expression of RhoA/ROCK and phosphorylation of ERK1/2 and AKT kinase in PASMCs were assessed by incubating the PASMCs with 5-HT (10 μM) for 15 min (peak time for RhoA/ROCK, ERK1/2 and AKT phosphorylation) and 5-HTT for 10 min (peak time for 5-HTT) after KMUP-1 (1-100 μM) was added to the culture of PASMCs for 24 h.

pulmonary artery rings = test: Isometric force of 5-HT-constricted pulmonary artery rings; design: species or system Wistar rats
Description: Wistar rats were euthanized with an overdose of sodium pentobarbital (60 mg/kg, i.p.) before open-chest surgery. During surgery, a thoracic retractor was used to help isolate the pulmonary artery. […] The pulmonary artery ring preparations were stretched to a basal tension of 1 g and allowed to equilibrate for 60-90 min. After equilibration, pulmonary artery rings were constricted with 5-HT (10 μM) to prime the tissues and check the functionality of the endothelium (at least 80% relaxation in response to acetylcholine 1 μM). […] The effect of KMUP-1 on NOS and 5-HT was also studied in vessels pre-incubated with the NOS inhibitor L-NAME (100 μM) 20 min before 5-HT administration. The percentage of relaxation was estimated using the following equation: relaxation (%)=(maximal contraction−relaxation level)/(maximal contraction-basal level)×100. Data was obtained from serotonin-induced maximal contractile responses in pulmonary artery.

eNOS = test: Short term nebulization, eNOS expression in lung tissues; type: in vivo, BALB/c mice; settings: nebulization 1.0˜2.5 mM, 30 mins, without ovalbumine sensitization
Description: […] Aerosols were generated by ultrasonic nebulizer from day 21 to 27. Mice were sacrificed on day 28, (Cataldo D D, et al., 2002). Three different experiments were performed on cohorts of 7˜14 mice per experimental condition.
(§1) The lung tissues were homogenized, washed with PBS and incubated in lysis buffer in addition to a protease inhibitor cocktail (Sigma, St. Louis, Mo.) to obtain extracts of lung proteins. A Western blot analysis was performed as described previously (Wu B N, et al., 2006). The samples were loaded to 10% SDS-PAGE gels and were separated at 120 V for 90 min. The blots were incubated with anti-eNOS antibody diluted at a ratio of 1:500, anti-sGCα1 antibody diluted at a ratio of 1:2000, anti-PKG antibody diluted at a ratio of 1:500, anti-VCAM-1 antibody diluted at a ratio of 1:500, anti-ICAM-1 antibody diluted at a ratio of 1:500, and anti-MMP-9 antibody diluted at a ratio of 1:600 overnight at 4° C. The membranes were stripped and re-blotted with anti-actin antibody (Sigma, St. Louis, Mo.) to verify the equal loading of protein in each lane.

NOx = test: Ovalbumine model, NO metabolites (NOx) in BALF; type: in vivo, BALB/c mice; settings: 24 hrs after last challenge; basal 65.4±8.2, ovalbumine 162.8±15.7
Description: In this long-term experiment, 6-8 week old BALB/c female mice were sensitized on days 1 and 8 by intra-peritoneal injection (i.p.) of ovalbumine (10 μg) (Sigma-Aldrich, Schnelldorf, Germany) adsorbed to 2 mg aluminum hydroxide (AlumInject; Perbio, Erembodegem, Belgium). Mice were divided into three groups. In Group 1, a control group was only exposed to saline nebulization by aerosol. The other 2 groups were subjected to ovalbumine (1%) nebulization. Before each challenge with ovalbumine, mice were either exposed to saline nebulization (Group 2) or KMUP-1 nebulization (5 mM) for 30 min by aerosol (Group 3).
The remaining BALF was centrifuged (900 g, 1200 rpm, 10 min) and the supernatant frozen (−80° C.) until determination of nitrite and nitrate by the Griess reaction. BALF (100 μL) was incubated (37° C.) for 30 min with N-2-hydroxyethylpiperazine-N′-ethane sulphonic acid buffer (HEPES) (50 mM, pH 7.4), flavin adenine dinucleotide (5 μM), nicotinamide adenine dinucleotide phosphate (0.1 mM), distilled water (290 μl), and nitrate reductase (0.2 U/ml) for the conversion of nitrate into nitrite. […] The samples were then incubated (25° C., 10 min) with Griess reagent [N-(1-naphthyl)-ethylenediamine: 0.2% (w/v), sulphanilamide: 2% (w/v), solubilized in double-distilled water: 95% and phosphoric acid: 5% (v/v)] and the absorbance measured at 540 nm. […]

PASMCs = PASMCs [Ca2+]i measurement (Fura-2/AM); type: cell-based, Wistar rats
Description: Wistar rats were anesthetized with an overdose of sodium pentobarbital (60 mg/kg) and the skin was sterilized with 75% alcohol. The chest was opened and the heart and lung were removed. The organs were rinsed several times in PBS. The pulmonary artery were segregated in a sterile manner. The outer sphere was peeled and the microtubule was snipped visually, and endothecia were shaved lightly 2-3 times in order to remove endothelial cells. The tunica media was prepared into scraps (1 mm^3) in DMEM (Dulbecco's modified Eagle's medium). PASMCs were cultured in DMEM containing 10% fetal bovine serum (5% CO2 at 37° C.). The culture medium was changed every 3 days and cells were subcultured until confluence. Primary cultures of 2-4 passages were used in the experiments. Cells were examined by immunofluorescence staining of α-actin to confirm the purity of PASMCs.
The measurement of [Ca^2+]i in PASMCs was performed using a spectrofluorophotometer as previously reported. PASMCs, cultured for 2-4 passages and re-suspended by trypsin, were loaded with Fura-2/AM for the measurement of [Ca^2+]i changes in cells within the cuvette by spectrofluorophotometer (Shimadzu, RF-5301PC, Shimadzu, Japan). KMUP-1 was applied 5 min before application of 5-HT (10 μM).

MMP-9 = test: Short term nebulization, MMP-9 expression in lung tissues; type: in vivo, BALB/c mice; settings: nebulization 1.0˜2.5 mM, 30 mins, without ovalbumine sensitization
Description: […] […] […] Three different experiments were performed on cohorts of 7˜14 mice per experimental condition.
as §1

Structure (SMILES): Cn1c(=O)c2c(ncn2CCN2CCN(c3ccccc3Cl)CC2)n(C)c1=O [KMUP-1, 7-[2-[4-(2-chlorophenyl)piperazinyl]ethyl]-1,3-dimethylxanthine]
- 5-HT-induced ROCK (ROCK): significantly inhibited
- 5-HT (10 μM) contractile response in pulmonary artery (pulmonary artery rings; 0.1-100 μM): inhibited
- maximum response of pulmonary artery to 5-HT (pulmonary artery rings; 10-100 μM, in the presence of L-NAME (100 μM)): reduced the maximum response
- eNOS expression in mice lung tissues (eNOS): dose-dependently increased
- levels of NOx (nitrate+nitrite) in BALF (NOx): 86.3 ± 17.3 µM
- inhibition of sustained [Ca^2+]i response to 5-HT (PASMCs; 10 μM): 65%
- 5-HT-induced elevation of [Ca^2+]i (PASMCs; 0.1-100 μM, 5-HT 10 μM): concentration-dependently inhibited
- MMP-9 expression in mice lung tissues (MMP-9): decreased
